Source: EP0171005A2, “Xanthinylmethylthiazolidines, process for their preparation and pharmaceutical compositions containing them” (BOEHRINGER BIOCHEMIA ROBIN S.p.A., priority 1984, dated 1986)
Like-named read-outs stand apart in the source and are kept apart here.

Tests used:
[1] = system: anhaestetized guinea pigs; assay: Konzett-Ressler test, resolution of histamine-induced bronchospasm; assay type: in vivo; conditions: intrajugular administration; bronchospasm induced by i.v. histamine
[2] = system: trachea smooth muscle strips of Guinea pig contracted by methaco- line; assay: Relaxation in vitro of trachea smooth muscle strips contracted by methacholine; conditions: Cavia porcellus, read-out: ED50 (the source's name)
Description: In particular these latter compounds of the invention are also characterized by pronounced ability to induce relaxation of the bronchial and tracheal smooth muscle.

[3] = system: male New Zealand white rabbits; assay: Mucus regulating properties in bronchitic rabbits (5% H2SO3 aerosol), sputum parameters as AUC; assay type: in vivo; conditions: for Fucose (mg/ml), AUC as a 100% compared to bronchitic controls / Galactose (mg/ml), AUC as a 100% compared to bronchitic controls / Mucus produc-tion (ml/kg), AUC as a 100% compared to bronchitic controls / Phospho-lipids (mg/ml), AUC as a 100% compared to bronchitic controls / Protein (mg/ml), AUC as a 100% compared to bronchitic controls / Sialic acid (mg/ml), AUC as a 100% compared to bronchitic controls / Viscosity (cps), AUC as a 100% compared to bronchitic controls: Table 2, oral, equimolecular amounts to S-carboxymethyl cysteine
Procedure: The mucus regulating properties of the compounds of the invention are investigated "in vivo" by means of experiments carried out on male New Zealand white rabbits. The animals are submitted to inhalation of a 5% H2S03 aqueous solution by aerosol (exposition of 3 hours a day for 3 alternate days), to induce a chronic bronchial inflammatory disease which causes a production of pathological sputum in the bronchial tree.
Aim of the experiments is to evaluate modifications of selective parameters such as dry weight of the sputum, viscosity, content in proteins, phospholipids, galactose, sialic acid and fucose, induced in this pathological sputum by pharmacological treatment with the compounds of the invention.
To this purpose, the sputum produced in the bronchial tree is collected daily, through a "T" shaped glass cannula, inserted in the trachea, before and after oral twice a day (9.00 a.m. and 4.00 p.m.) treatment with one of the compounds of the invention.
The schedule treatment procedure is shown in the following Schema 1: [drawing 23] where 0 indicates the day of implantation of the tracheal cannula; -7-5-3 indicate the days of H2S03 treatment (H); 1,2,3,4 indicate the days of oral administration of the compounds of the invention (T) and the time of mucus collection (M).
The mucus collected in day 1 in the morning is considered as a blank; 7 indicates the day of the animal sacrifice after the mucus collection.
The sputum samples are stored in the freezer (-20°C) until the investigation of biological and rheological parameters is carried out.
The samples are investigated for relative viscosity, measured at 37°C with a Brookfield viscometer (model LT VD) equipped with a 1,565° cone-plate, and aliquoted for biochemical analysis of protein, phospholipids, galactose, sialic acid and fucose contents. Dry weight of the mucus is also determined. For each parameter, cumulative data are referred to a seven days period after the beginning of the treatment and they are extrapolated using the AUC method (area under curve) calculated by the trapezoidal rule. Finally the data are compared with data obtained from controls (vehicle treatment), non bronchitic rabbits (vehicle treatment) and positive controls bronchitis rabbits treated with 0.153 M 2-carboxymethyl cysteine.

conscious mongrel dogs = assay: Dog cough test (Stefko procedure, cough induced by electric stimulation of the trachea); assay type: in vivo
Procedure: (§1) The techniques described by Charlier et al. (Arch. Int. Pharmacodyn. 134, 306, 1961) and by Stefko et al. (J. Pharm. Exp. Therap., 108, 217, 1953), adapted with minor modifications, are used to investigate the antitussive properties of the compounds of the invention. Codeine phosphate is used as positive reference compound.
In the Stefko procedure, conscious mongrel dogs (15+3 kg body weight) are used; the compounds of the invention are tested for their ability to inhibit cough induced by electric stimulation.
Under general anesthesia, two insulated nichrome wires (0.4 mm diameter) are surgically implanted into the submucosa of the trachea.
About two days later, the dogs are placed in a sling and the exteriorized electrodes are connected to an electric stimulating device (such as Grass S 48 Mod.).
The stimulation parameters such as: delay 0.01 msec, duration 1 msec, frequency 30 Hz, are used.
An electrical stimulus of 1 sec is applied 10 times at 5 sec intervals in order to determine the minimum voltage necessary for eliciting reproducible cough responses. Then, tussive responses to the electrical stimuli are registered at 15, 30, 60, 90, 120, 150, 180, 240, 300 and 360 minutes after oral administration of the compounds of the invention.
The tussive responses are scored as follows: • 1: no response; 2: sigh or exaggerated expiration; • 3: marked cough; 4: one marked cough and one exaggerated expiration; 5: two marked coughs.
Six dogs are employed for each determination and the mean activity is calculated.
The inhibition percent of the cough response and the duration of activity are compared with codeine.

Guinea pigs = assay: Guinea pig cough test (Charlier procedure, citric acid aerosol); assay type: in vivo; conditions: for ED50: Cavia porcellus, ip, 1 h; for delay of first cough stroke: delay corresponding to the ED50, i.p.
Procedure: as §1
According to the Charlier procedure, Guinea pigs are exposed to a citric acid aerosol (7.5%) and cough is recorded 60 minutes after the antitussive treatment by i.p. route. Male animals of 300-400 g body weight are used in all the experiments. Guinea pigs are placed in a perspex box (20x30x30 cm) connected to an aerosol compressor; the animals are subjected to a citric acid saturated atmosphere, 60 minutes after the i.p. injection of a compound of the invention (0.1 and 0.3 M solutions; 1 ml/kg).
The total number of cough strokes and the delay of the first cough are recorded during the first five minutes.
Five guinea pigs are used for each dose level and the results are compared with controls (vehicle treatment) and codeine phosphate 0.07 M solution (standard treatment).
ED and the corresponding delay of first cough stroke are calculated.
The data obtained by i.p. administration are confirmed by oral administration.

[4] = Acute toxicity, LD50 in mice; conditions: mouse, in vivo
Description: LD50 values above 1 g/kg are generally determined both after oral and intraperitoneal administration of the compounds of the invention.

[5] = Table 1, 0.153 M, oral twice a day, seven days period

With `COc1cc(C=CC(=O)N2CCSC2Cn2cnc3c2c(=O)n(C)c(=O)n3C)cc(CN2CCOCC2)c1O` (centres unmarked) [2-LTl',3'-dimethyl-xanthin-7'-yl)methyl]-3-[(3-morpholinylmethyl-4'-hydroxy-5'-methoxy)cinnamoyi7thiazolidine] the “activity compared with aminophylline in the resolution of bronchospasm” value [1] was “at least four times more active than aminophylline” and the EC50 [2] was 190 µM.

In the case of `Cn1c(=O)c2c(ncn2CC2NC(C(=O)O)CS2)n(C)c1=O` (centres unmarked) [2-[(1',3'-dimethylxanthin-7'-yl)methyl]thiazolidine-4-carboxylic acid], the “Fucose (mg/ml), AUC as a 100% compared to bronchitic controls” value [3] is reported as 77%, the “Galactose (mg/ml), AUC as a 100% compared to bronchitic controls” value [3] is reported as 82% and the “Mucus produc-tion (ml/kg), AUC as a 100% compared to bronchitic controls” value [3] is reported as 128%. For the same molecule, the “Phospho-lipids (mg/ml), AUC as a 100% compared to bronchitic controls” value [3] was 78%, the “Protein (mg/ml), AUC as a 100% compared to bronchitic controls” value [3] was 80% and the “Sialic acid (mg/ml), AUC as a 100% compared to bronchitic controls” value [3] was 81%. The “Viscosity (cps), AUC as a 100% compared to bronchitic controls” value [3] was 55%, the “duration of action compared with codeine” value (conscious mongrel dogs; 20 mg/kg, dogs) was “favourably compares with codeine for its duration of action” and the inhibition at 20 mg/kg (conscious mongrel dogs; Canis lupus familiaris, 20 mg/kg, oral, read-out: inhibition of the cough stimulus) was 32%. The ED50 (Guinea pigs; citric acid aerosol 7.5%, cough recorded 60 minutes after i.p. treatment, read-out: ED50) was 62 mg/kg, the “delay of first cough stroke” value (Guinea pigs) was 213% and the “duration of action compared with codeine” value (Guinea pigs; guinea pig cough test) was “more favourable duration of action in comparison to codeine”.

With `Cn1c(=O)c2c(ncn2CC2NCCS2)n(C)c1=O` (centres unmarked) [2-[(1',3'-dimethylxanthin-7'-yl)methyl]thiazolidine] the LD50 ([4]; ip, read-out: LD 50 (i.p.)) was 480 mg/kg, the LD50 ([4]; oral, read-out: LD 50 (os)) was 600 mg/kg and the “Fucose (mg/ml), AUC as a 100% compared to bronchitic controls” value [3] was 66%. The “Galactose (mg/ml), AUC as a 100% compared to bronchitic controls” value [3] was 5%, the “Mucus produc-tion (ml/kg), AUC as a 100% compared to bronchitic controls” value [3] was 80% and the “Phospho-lipids (mg/ml), AUC as a 100% compared to bronchitic controls” value [3] was 30%. The “Protein (mg/ml), AUC as a 100% compared to bronchitic controls” value [3] was 58%, the “Sialic acid (mg/ml), AUC as a 100% compared to bronchitic controls” value [3] was 101% and the “Viscosity (cps), AUC as a 100% compared to bronchitic controls” value [3] was 16%.

In the case of `N[C@@H](CSCC(=O)O)C(=O)O` [S-carboxy-methyl cy steine, S-carboxymethyl cysteine, reference compound], the “Fucose mg/ml, AUC as a % compared to bronchitis controls” value [3, 5] is reported as 56%, the “Galactose mg/ml, AUC as a % compared to bronchitis controls” value [3, 5] is reported as 64% and the “Mucus production ml/kg, AUC as a % compared to bronchitis controls” value [3, 5] is reported as 97%. For the same molecule, the “Phospholipids mg/ml, AUC as a % compared to bronchitis controls” value [3, 5] was 108%, the “Protein mg/ml, AUC as a % compared to bronchitis controls” value [3, 5] was 105% and the “Sialic acid mg/ml, AUC as a % compared to bronchitis controls” value [3, 5] was 60%. For the same molecule, the “Viscosity (cps), AUC as a % compared to bronchitis controls” value [3, 5] was 52%.

`COc1ccc2c3c1O[C@H]1[C@@H](O)C=C[C@H]4[C@@H](C2)N(C)CC[C@@]341` [codeine phosphate, reference compound] showed a duration of activity (conscious mongrel dogs; 8 mg/kg, oral) of 2 to 4 h, an inhibition at 8 mg/kg (conscious mongrel dogs; Canis lupus familiaris, po, read-out: inhibition of the cough stimulus) of 52% and an ED50 (Guinea pigs) of about 23 mg/kg. The “delay of first cough stroke” value (Guinea pigs) was 170%.

`Cn1c(=O)c2c(ncn2CC(O)CO)n(C)c1=O` (centres unmarked) [dihydroxypropyltheophylline, reference compound] showed an EC50 ([2]; reference, unit inferred) of 76 µM.
